The results in this text go back to patent US20140179794A1, “LEVOMILNACIPRAN-BASED DRUG FOR FUNCTIONAL RECOVERY AFTER ACUTE NEUROLOGICAL EVENTS” (PIERRE FABRE MEDICAMENT, priority 2011, published 2014).

This assay is described as follows: Binding to the recombinant human alpha1 receptor (prazosin [3H], CHO cell membranes).

Text: The bound fraction was separated by filtration and washing in cooled TRIS+NaCl+KCl buffer. […] The bound fraction was separated by filtration and washing in cooled TRIS+NaCl+KCl buffer. […] The bound fraction was separated by filtration and washing in cooled TRIS buffer.

In the case of `CCN(CC)C(=O)C1(c2ccccc2)CC1CN` (centres unmarked) [dextromilnacipran], the Ki is 3.4 µM.

Take `CCN(CC)C(=O)[C@@]1(c2ccccc2)C[C@H]1CN` [levomilnacipran]: the inhibitory constant (Ki) stood at 110 µM.
